The values that follow come from US20130039887A1, “Methods of Identifying and Using Anti-Viral Compounds” (KINETA, INC., priority 2010, published 2013).

For one series, the system named is HCV2a virus. Put plainly: HCV immunofluorescence antiviral / focus-forming assay in Huh7 cells. It counts as cell-based, Hepatitis C virus. As to conditions: Huh7 cells pre-treated 24 h (compounds 10 μM), HCV2a MOI 0.1-0.5. Here is the method:
HCV immunofluorescence antiviral assay: Huh7 cells are seeded on a 96-well plate at a density of 5×10^3 cells per well and grown for 24 hours. Compounds that have been diluted to 10 μM in media and contain a final concentration of 0.5% DMSO are added to each well and grown another 24 hours. The compound media solution is removed from the plate and stored in a clean tissue culture dish. Cell monolayers are washed with PBS and HCV2a virus is added at the stated MOI. Virus is incubated for 2-4 hours and then removed, the monolayers are washed with PBS and the compound solutions are replaced into each well.
The cells are grown overnight and then cells are fixed and stained for HCV proteins. All buffers and reagents used are from the Cellomics staining kits described above. HCV specific antibodies from either commercial sources or primary patient serum can be used to detect HCV infected cells in culture. […] The number of infected cells is counted and representative images are saved. […]
To measure levels of HCV infection with or without drug treatment the cells were stained for HCV specific staining using serum and a FITC conjugated fluorescent secondary antibody. […] Using an inverted fluorescent microscope the number of infected cells is quantitated (shown—FIG. 9 bottom panel). […]

The next series concerns ISG54 promoter. Kind of series: ISG54-luciferase reporter assay in Huh7-ISG54-Luc cells. It counts as cell-based, human. As to conditions: dose response (5-50 μM), 24 h.
For another series, the system named is actin promoter. Kind of series: Actin promoter control cell line counter screen (β-actin-LUC). It counts as cell-based, human. A general note: The purpose of a counterscreen is to sort out artefacts and off-target activity.
The next series deals with Huh7, MRC5 and 293 cells. Kind of series: MTS cytotoxicity assay in multiple cell types (Huh7, MRC5, 293). Type of series: cell-based, human. Here is the method: All lead molecules chosen for further development mediate IRF-3 nuclear translocation and have antiviral activity against HCV. All induce dose-dependent activation of ISG expression in the absence of nonspecific promoter (β-actin) induction. To analyze in vitro cytotoxicity of lead agonist molecules, an MTS assay was conducted using multiple cell types (Huh7, human liver; MRC5, lung fibroblast; and 293, […]).
Background: Tetrazolium dyes change colour on reduction, which living cells bring about.

Series [1] deals with Influenza A virus WSN strain (A/WSN/33). Put plainly: Influenza A virus nucleoprotein ELISA / Western blot assay. It counts as cell-based. The settings on record: ELISA and Western blot. On the technique in general: In an ELISA, binding on a coated surface is turned into a signal by an enzyme label.

As to Interferon, the “HCV infection (infected cells stained for HCV proteins, IF assay)” value with HCV2a virus is recorded as “completely blocks HCV infection”.

Regarding `NS(=O)(=O)c1ccc(-c2ccc(/C=C3/SC(=S)N(Cc4ccco4)C3=O)o2)cc1` [KIN300], in the series with ISG54 promoter, the “induction of the ISG54-luciferase reporter” value is “dose-dependent induction”. The “nonspecific promoter induction (β-actin-LUC)” value in the series on actin promoter is on record as “absence of nonspecific promoter induction”. Also, in the series on Huh7, MRC5 and 293 cells, the “cytotoxicity (MTS assay)” value is “absence of cytotoxicity”. Further, the “anti-influenza activity (viral nucleoprotein levels)” value (from here on “anti-influenza activity”) in series [1] is on record as “efficient, dose-dependent anti-influenza activity”.

Take `N#Cc1c(-c2ccccc2)cc(-c2ccccc2)nc1SCC(=O)N1CCOCC1` [KIN400]: the “anti-influenza activity” value in series [1] is recorded as “efficient, dose-dependent anti-influenza activity”.

As to `COc1ccc(NC(=O)Cn2c(=O)n(Cc3ccco3)c(=O)c3oc4ccccc4c32)c(OC)c1` [KIN500], the “anti-influenza activity” value in series [1] was “efficient, dose-dependent anti-influenza activity”.
